Test results from patent US12227520B2 (priority 2019, dated 2025).
Read-outs that look alike come from different tables or passages of the source.

Experiments:
[1] = Cytotoxicity assay in MT-4 cells; format: cell-based, human; details: human, uninfected MT-4 cells, 5 days incubation; read-out: CC50
In short: (§1)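 Infected MT-4 cells (HIV-1 IIIB, fresh 1:250 dilution of concentrated stock) or mock-infected cells exposed to compounds for 5 days at 37 °C. Viability by CellTiter-Glo luminescence; 5 μM AZT positive control, no-drug negative control. Uninfected cells used for cytotoxicity, with 10 μM puromycin as base-level cytotoxicity control.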

uninfected MT-4 cells = assay: Cytotoxicity assay in MT-4 cells; format: cell-based, human; details: uninfected MT-4 cells, 5 days incubation
In short: as §1

pLai RLuc reporter virus = assay: microbe, parasite or virus in culture; format: cell-based, HIV
In short: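 MT-4 cells pre-infected 2 h at 37 °C with pLai RLuc virus, then exposed to 1:3 serial dilutions of compound in RPMI/10% FBS with or without 50% human serum for 72 h at 37 °C. Renilla luminescence read-out; serum shift = EC50(HS/CCM)/EC50(CCM).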

HIV-1 (IIIB) = assay: Antiviral assay in MT-4 cells (HIV MT-4 antiviral assay); format: cell-based; details: HIV-1 (IIIB) in MT-4 cells, 5 days incubation
In short: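 MT-4 cells infected with HIV-1 IIIB (1:250 diluted stock) and exposed to 1:3 serially diluted compound in RPMI with 10% FBS. Viability read by CellTiter-Glo luminescence after 5 days at 37° C; mock-infected cells and 5 μM AZT as controls.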

[2] = Human immunodeficiency virus 1, 72 h, read-out: Antiviral Serum Shift RLuc 50% HS, HS/CCM (RPMI media, 10% FBS, 50% HS, 1% P/S), 72-h incubation
[3] = Human immunodeficiency virus 1, 72 h, read-out: Antiviral Serum Shift RLuc CCM, CCM (RPMI media, 10% FBS, 1% P/S), 72-h incubation
[4] = read-out: Antiviral Serum Shift RLuc 50% HS, HS/CCM (RPMI media, 10% FBS, 50% HS, 1% P/S), 72-h incubation
[5] = read-out: Antiviral Serum Shift RLuc CCM, CCM (RPMI media, 10% FBS, 1% P/S), 72-h incubation

Row | Compound | CC50 at 5 days [1] | CC50 (uninfected MT-4 cells) | EC50 (pLai RLuc reporter virus; [2]) | EC50 (pLai RLuc reporter virus; [3]) | EC50 (HIV-1 (IIIB); read-out: EC50) | EC50 (pLai RLuc reporter virus; [4]) | EC50 (pLai RLuc reporter virus; [5]) | EC50 (HIV-1 (IIIB)) | EC50 (pLai RLuc reporter virus; CCM (RPMI media, 10% FBS, 1% P/S), 72-h incubation, read-out: Antiviral Serum Shift RLuc CCM) | EC50 (pLai RLuc reporter virus; HS/CCM (RPMI media, 10% FBS, 50% HS, 1% P/S), 72-h incubation, read-out: Antiviral Serum Shift RLuc 50% HS)
1 | O=C(NCc1ccc(F)cc1F)c1cn2c(c(O)c1=O)C(=O)N1CCc3ccccc3[C@@H]2C1 [Example 64-1, (13R)—N-(2,4-difluorobenzyl)-4-hydroxy-3,5-dioxo-3,5,8,13-tetrahydro-7H-6,13-methanobenzo[g]pyrido[1,2-a][1,4]diazonine-2-carboxamide] | 14800 nM | 12300 nM | 3.31 nM | 0.319 nM | – | – | – | – | – | –
2 | O=C(NCc1c(F)cc(F)cc1F)c1cn2c(c(O)c1=O)C(=O)N1CCCC(CF)C2C1 (single isomer, unassigned) [Example 194-2, 6-(fluoromethyl)-12-hydroxy-1,11-dioxo-N-(2,4,6-trifluorobenzyl)-1,4,5,6,7,11-hexahydro-3H-2,7-methanopyrido[1,2-a][1,4]diazonine-10-carboxamide] | – | 10500 nM | – | – | 1.5 nM | 2.99 nM | 0.378 nM | – | – | –
3 | O=C(NCc1c(F)cc(F)cc1F)c1cn2c(c(O)c1=O)C(=O)N1CCCC(CF)C2C1 (single isomer, unassigned) [Example 194-4, 6-(fluoromethyl)-12-hydroxy-1,11-dioxo-N-(2,4,6-trifluorobenzyl)-1,4,5,6,7,11-hexahydro-3H-2,7-methanopyrido[1,2-a][1,4]diazonine-10-carboxamide] | – | 11300 nM | – | – | 1.75 nM | 3.48 nM | 0.397 nM | – | – | –
4 | O=C(NCc1ccc(F)cc1F)c1cn2c(c(O)c1=O)C(=O)N1CC2CCc2cc(F)ccc21 (single isomer, unassigned) [Example 55-2] | – | 7330 nM | 1.32 nM | 0.312 nM | – | – | – | 1.8 nM | – | –
5 | O=C(NCc1ccc(F)cc1F)c1cn2c(c(O)c1=O)C(=O)N1C[C@H](F)CC[C@H]2C1 (single isomer, unassigned) [Example 53-4] | – | > 44400 nM | – | – | 4.72 nM | 18.3 nM | 0.696 nM | – | – | –
6 | (3S,7S)-5-fluoro-12-hydroxy-3-methyl-1,11-dioxo-N-(2,4,6-trifluorobenzyl)-1,6,7,11-tetrahydro-3H-2,7-methanopyrido[1,2-a][1,4]diazonine-10-carboxamide [Example 118-2] | – | 11600 nM | – | – | 1.17 nM | – | – | – | 0.249 nM | 0.507 nM
7 | O=C(NCc1c(F)cc(F)cc1F)c1cn2c(c(O)c1=O)C(=O)N1C[C@@H]2CCC[C@@H]1CF [Example 180, (3R,7S)-3-(fluoromethyl)-12-hydroxy-1,11-dioxo-N-(2,4,6-trifluorobenzyl)-1,4,5,6,7,11-hexahydro-3H-2,7-methanopyrido[1,2-a][1,4]diazonine-10-carboxamide] | – | 10400 nM | – | – | 1.21 nM | 13.5 nM | 0.32 nM | – | – | –
